Experimental findings from US7595401B2, “Therapeutic compounds and their use in cancer” (Myriad Pharmaceuticals, Inc., priority 2006, dated 2009) are described below.

The structures appear in SMILES notation.

The first assay has as its system purified human Hsp90. In words: Binding Assay: fluorescence polarization with BODIPY-labeled geldanamycin. To be noted: 5 μM compound, BODIPY-GM 10 nM, Hsp90 30 nM. Here is the method: Compound binding to purified Hsp90 was monitored using BODIPY-labeled geldanamycin (BODIPY-GM) in a fluorescence polarization assay adapted from Kim et al. (Journal of Biomolecular Screening 2004, 9(5):375-381). Compound dilutions (in 100% DMSO) were added to black-bottom 96-well plates (Greiner; 2% DMSO final), and equal volumes of BODIPY-GM (10 nM final) and purified human Hsp90 (Stressgen, SPP-770; 30 nM final) in assay buffer (20 mM HEPES-KOH pH 7.3, 50 mM KCl, 5 mM MgCl2, 20 mM Na2MoO4, 0.01% NP-40, 0.1 mg/mL bovine gamma globulin [Invitrogen, P2045], 2 mM DTT) were added sequentially to yield a final volume of 50 microliters. Plates were incubated overnight at room temperature. Parallel and perpendicular fluorescence measurements were read (LJL BioSystems Analyst AD plate reader) with excitation/emission wavelengths of 485/530 nm. Background fluorescence (buffer only) was subtracted, and fluorescence polarization (FP) values, expressed in mP units, were calculated from parallel and perpendicular fluorescence readings as follows: FP=(parallel−perpendicular)/(parallel+perpendicular)*1000
Percent inhibition was calculated by normalizing the FP values to those obtained in parallel reactions containing DMSO and subtracting these normalized values from 100%. Intrinsic compound fluorescence was independently monitored, and FP data points confounded by compound fluorescence were excluded from the analysis.
In general, % Inhibition refers to how much of the control response was suppressed. Low readings indicate little suppression, high ones strong suppression. `COc1ccc(OC)c(Sc2nc3c(N)ncn(CCc4cc(C)cc(C)c4)c-3n2)c1` [Example 133, 8-(2,5-dimethoxy-phenylsulfanyl)-3-[2-(3,5-dimethyl-phenyl)-ethyl]-3H-purine-6-ylamine]: the “% Inhibition at 5 μM Compound Concentration” value (from here on “% Inhibition”) turned out to be 0%.

For `COc1ccc(OC)c(Sc2nc3c(N)ncn(CC(c4ccc(Cl)cc4)C(C)C)c-3n2)c1` (stereo not drawn) [Example 120, 3-[2-(4-chloro-phenyl)-3-methyl-butyl]-8-(2,5-dimethoxy-phenylsulfanyl)-3H-purine-6-ylamine], the “% Inhibition” value is listed as 0%. Turning to `Nc1ncn(CCc2cccc3ccccc23)c2nc(Sc3cc4c(cc3Br)OCO4)nc1-2` [Example 158, 8-(6-bromo-benzo[1,3]dioxol-5-ylsulfanyl)-3-(2-naphthalen-1-yl-ethyl)-3H-purin-6-ylamine], the “% Inhibition” value was determined as 0%. As to `Nc1ncn(CCc2cccs2)c2nc(Sc3cc4c(cc3Br)OCO4)nc1-2` [Example 204, 8-(6-bromo-benzo[1,3]dioxol-5-ylsulfanyl)-3-(2-thiophen-2-yl-ethyl)-3H-purin-6-ylamine], the “% Inhibition” value is 11%. Same read-out and setting: with `Cc1ccsc1Sc1nc2c(N)ncn(CCC3CCN(C=O)CC3)c-2n1` [Example 547, 4-(2-{6-Amino-8-[(3-methyl-2-thienyl)thio]-3 H-purin-3-yl}ethyl)piperidine-1-carbaldehyde] the figure was 12.00%; with `CS(=O)(=O)N1CCC(CCn2cnc(N)c3nc(Sc4cc5c(cc4Br)OCO5)nc2-3)CC1` [Example 366, 8-[(6-Bromo-1,3-benzodioxol-5-yl)thio]-3-{2-[1-(methylsulfonyl)piperidin-4-yl]ethyl}-3H-purin-6-amine], 20%. For the compound `COc1ccc(OC)c(Sc2nc3c(N)ncnc3n2CC(c2ccccc2)C2CCCCC2)c1` (stereo not drawn) [Example 179, 9-(2-Cyclohexyl-2-phenyl-ethyl)-8-(2,5-dimethoxy-phenylsulfanyl)-9H-purin-6-ylamine], the “% Inhibition” value is 8%.

`COc1ccc(OC)c(Sc2nc3c(N)ncn(CC4(c5ccc(Cl)cc5)CC4)c-3n2)c1` [Example 280, 3-{[1-(4-Chlorophenyl)cyclopropyl]methyl}-8-[(2,5-dimethoxyphenyl)thio]-3H-purin-6-amine]: the “% Inhibition” value is given as 0.0%. Consider `COc1ccc(OC)c(Sc2nc3c(N)ncnc3n2CCc2ccccc2C)c1` [Example 69, 8-(2,5-Dimethoxy-phenylsulfanyl)-9-(2-o-tolyl-ethyl)-9H-purin-6-ylamine], for which the “% Inhibition” value was determined as 69%. For the compound `CC(C)(C)OC(=O)N1CCC[C@H](CCn2cnc(N)c3nc(Sc4cc5c(cc4Br)OCO5)nc2-3)C1` [Example 393, tert-Butyl (3R)-3-(2-{6-amino-8-[(6-bromo-1,3-benzodioxol-5-yl)thio]-3H-purin-3-yl}ethyl)piperidine-1-carboxylate], the “% Inhibition” value came to 0%.

For `Cc1ccc(CCn2cnc(N)c3nc(Sc4cc5c(cc4Br)OCO5)nc2-3)cc1` [Example 164, 8-(6-bromo-benzo[1,3]dioxol-5-ylsulfanyl)-3-(2-p-tolyl-ethyl)-3H-purin-6-ylamine], the “% Inhibition” value is listed as 0%.

Staying with this assay, now noted: BODIPY-GM 10 nM, Hsp90 30 nM.
A word on the IC50: it is the concentration at which inhibition is half-maximal. Lower therefore signals inhibition by little substance. `CCC(C)C(Cn1c(Sc2cc(OC)ccc2OC)nc2c(N)ncnc21)c1ccccc1` (stereo not drawn) [Example 105, 8-(2,5-Dimethoxy-phenylsulfanyl)-9-(3-methyl-2-phenyl-pentyl)-9H-purin-6-ylamine] registered an IC50 above 1 µM. The same measure, in the same setting: with `COc1ccc(OC)c(Sc2nc3c(N)ncnc3n2CCc2c(C)cc(C)cc2C)c1` [Example 55, 8-(2,5-Dimethoxy-phenylsulfanyl)-9-[2-(2,4,6-trimethyl-phenyl)-ethyl]-9H-purin-6-ylamine] the figure was 1.7 µM; with `Nc1ncn(CCc2ccccc2)c2nc(Sc3cc4c(cc3Br)OCO4)nc1-2` [Example 14, 8-(6-bromo-benzo[1,3]dioxol-5-ylsulfanyl)-3-phenethyl-3H-purin-6-ylamine], 5 µM; with `COc1ccc(C#N)cc1Sc1nc2c(N)ncnc2n1CCc1ccccc1Cl` [Example 306, 3-({6-Amino-9-[2-(2-chlorophenyl)ethyl]-9H-purin-8-yl}thio)-4-methoxybenzonitrile], above 25 µM. Take `CC(C)(C)NC(=O)N1CCC(CCn2c(Sc3cc4c(cc3Br)OCO4)nc3c(N)ncnc32)CC1` [Example 433, 4-(2-{6-Amino-8-[(6-bromo-1,3-benzodioxol-5-yl)thio]-9H-purin-9-yl}ethyl)-N-(tert-butyl)piperidine-1-carboxamide]: the IC50 was determined as 0.125 µM. As to `CO[C@@H](C)C(=O)N1CCC(CCn2cnc(N)c3nc(Sc4cc5c(cc4Br)OCO5)nc2-3)CC1` [Example 727, 8-[(6-Bromo-1,3-benzodioxol-5-yl)thio]-3-(2-{1-[(2S)-2-methoxypropanoyl]piperidin-4-yl}ethyl)-3 H-purin-6-amine], the IC50 was 32 µM. This IC50 lies about 260-fold higher than the previous one. On to `CCOC(=O)N1CCCCC1CCn1c(Sc2cc(OC)ccc2OC)nc2c(N)ncnc21` (stereo not drawn) [Example 337, 2-{2-[6-Amino-8-(2,5-dimethoxy-phenylsulfanyl)-purin-9-yl]-ethyl}-piperidine-1-carboxylic acid ethyl ester], for which the IC50 is above 8 µM. Take `COc1cc(Sc2nc3c(N)ncnc3n2CCC2CCN(C=O)CC2)c(OC)cc1Cl` [Example 558, 4-(2-{6-Amino-8-[(4-chloro-2,5-dimethoxyphenyl)thio]-9 H-purin-9-yl}ethyl)piperidine-1-carbaldehyde]: the IC50 was above 5 µM.

As for `CC(C)(C)OC(=O)N1CCOC(CCn2c(Sc3cc4c(cc3Br)OCO4)nc3c(N)ncnc32)C1` (stereo not drawn) [Example 367, tert-Butyl 2-(2-{6-amino-8-[(6-bromo-1,3-benzodioxol-5-yl)thio]-9H-purin-9-yl}ethyl)morpholine-4-carboxylate], the IC50 is above 25 µM. With `CC(C)(C)OC(=O)N1CCCC1CCn1c(Sc2cc3c(cc2Br)OCO3)nc2c(N)ncnc21` (stereo not drawn) [Example 414, tert-Butyl 2-(2-{6-amino-8-[(6-bromo-1,3-benzodioxol-5-yl)thio]-9H-purin-9-yl}ethyl)pyrrolidine-1-carboxylate], the IC50 amounted to 0.54 µM.

Compound `CN1CCCC1CCn1c(Sc2cc3c(cc2Br)OCO3)nc2c(N)ncnc21` (stereo not drawn) [Example 355, 8-[(6-Bromo-1,3-benzodioxol-5-yl)thio]-9-[2-(1-methylpyrrolidin-2-yl)ethyl]-9H-purin-6-amine] gave an IC50 above 25 µM. In turn, `Nc1ncn(CCc2ccccc2)c2nc(Sc3cc4c(cc3I)OCO4)nc1-2` [Example 34, 8-(6-iodo-benzo[1,3]dioxol-5-ylsulfanyl)-3-phenethyl-3H-purin-6-ylamine] registered a half-maximal inhibitory concentration (IC50) above 10 µM. For `Cc1cc(=O)oc2cc(Sc3nc4c(N)ncnc4n3CCC3CCN(C=O)CC3)ccc12` [Example 532, 4-(2-{6-Amino-8-[(4-methyl-2-oxo-2 H-chromen-7-yl)thio]-9 H-purin-9-yl}ethyl)piperidine-1-carbaldehyde], the IC50 came to 5 µM.

In turn, `CC(=O)N1CCC(CCn2c(Sc3ccc4c(c3)CCO4)nc3c(N)ncnc32)CC1` [Example 528, 9-[2-(1-Acetylpiperidin-4-yl)ethyl]-8-(2,3-dihydro-1-benzofuran-5-ylthio)-9 H-purin-6-amine] displayed an IC50 above 5 µM.

`CC(C)[C@H]1C[C@H](CCn2c(Sc3cc4c(cc3Br)OCO4)nc3c(N)ncnc32)CCN1` (relative stereo) [Example 479, 8-[(6-bromo-1,3-benzodioxol-5-yl)thio]-9-{2-[trans-2-isopropylpiperidin-4-yl]ethyl}-9 H-purin-6-amine] registered an IC50 of 0.199 µM.

`COc1cc(Sc2nc3c(N)ncnc3n2CCC2CCN(C=O)CC2)cc(OC)c1OC` [Example 540, 4-(2-{6-Amino-8-[(3,4,5-trimethoxyphenyl)thio]-9 H-purin-9-yl}ethyl)piperidine-1-carbaldehyde]: the IC50 is above 5 µM. `CC(=O)N1CCC(CCn2c(Sc3nc4ccccc4s3)nc3c(N)ncnc32)CC1` [Example 659, 9-[2-(1-Acetylpiperidin-4-yl)ethyl]-8-(1,3-benzothiazol-2-ylthio)-9H-purin-6-amine]: the IC50 was found to be 4 µM. Compound `COc1ccc(OC)c(Sc2nc3c(N)ncnc3n2CCN2CCN(C(C)=O)CC2)c1` [Example 629, 9-[2-(4-Acetylpiperazin-1-yl)ethyl]-8-[(2,5-dimethoxyphenyl)thio]-9 H-purin-6-amine] came in with an IC50 above 25 µM. In the case of `Nc1ncn(CCN2C(=O)CCCC2=O)c2nc(Sc3cc4c(cc3Br)OCO4)nc1-2` [Example 497, 1-(2-{6-amino-8-[(6-bromo-1,3-benzodioxol-5-yl)thio]-3H-purin-3-yl}ethyl)piperidine-2,6-dione], the IC50 was 25 µM. For the compound `COc1ccc(CN2CCC(CCn3c(Sc4cc5c(cc4Br)OCO5)nc4c(N)ncnc43)CC2)cc1` [Example 594, 8-[(6-Bromo-1,3-benzodioxol-5-yl)thio]-9-{2-[1-(4-methoxybenzyl)piperidin-4-yl]ethyl}-9 H-purin-6-amine], the IC50 was 0.27 µM. This IC50 is about 93-fold lower than that of the compound before. Still for that read-out and setting: the figure for `COc1ccc(OC)c(Sc2nc3c(N)ncnc3n2CCc2ccccc2C)c1` [Example 69, 8-(2,5-Dimethoxy-phenylsulfanyl)-9-(2-o-tolyl-ethyl)-9H-purin-6-ylamine] is 0.25 µM.

`Nc1ccccc1CCn1c(Sc2cc3c(cc2Br)OCO3)nc2c(N)ncnc21` [Example 282, 9-[2-(2-Aminophenyl)ethyl]-8-[(6-bromo-1,3-benzodioxol-5-yl)thio]-9H-purin-6-amine] yielded an IC50 of 0.055 µM.
